# Laboratory results as given in PubChem BioAssay (NCI).
# Values joined by “and” are separate entries in the source; they are usually repeats but may differ in a detail not shown here. Identical values can stand only once.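 96-well plates; 48 h exposure; 5 concentrations. Endpoints by linear interpolation between flanking doses. Not reached: highest tested concentration assigned. GI50 is the concentration that inhibits growth by half. At the TGI there is no net growth.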
# How the values were obtained:
# Assay in all cases: NCI anticancer screen, dose series, 48 h
# [1] = test system: 786-0 renal
# [2] = test system: A549 NSCLC
# [3] = test system: HCT-15 colon
# [4] = test system: HOP-62 NSCLC
# [5] = test system: OVCAR-4 ovarian
# [6] = test system: SF-539 CNS
# [7] = test system: SK-MEL-5 melanoma
# [8] = test system: SNB-19 CNS
# [9] = test system: T-47D breast
# [10] = test system: TK-10 renal
SMILES,TGI [1] [µM],TGI [2] [µM],TGI [3],TGI [4] [µM],TGI [5],TGI [6] [µM],TGI [7],TGI [8] [µM],TGI [9] [µM],TGI [10] [µM],GI50 [3],GI50 [5],GI50 [6],GI50 [7] [µM],GI50 [8] [µM],GI50 [9] [µM],GI50 [2] [µM],GI50 [4],GI50 [10] [µM]
c1ccc(CCNCc2ccco2)nc1,> 100,> 100,> 100 µM,> 100,> 100 µM,> 100,> 100 µM,> 100,> 28.5,> 100,,,,,,,,,
O=C1CCC2(CCO1)OCCO2,> 100,> 100,> 100 µM,> 100,> 100 µM,> 100,> 100 µM,> 100,> 100,> 100,,,,,,,,,
O=C1C=CC(=O)C(CNc2ccc(C(=O)OC34CC5CC(CC(C5)C3)C4)cc2)=C1,23,56.9,12.3 µM,17.1,12 µM,8.89,16.7 µM,27.8,6.88,23.8,,,,,,,,,
COc1cccc(CC(C)NCC(O)c2ccc(O)c(O)c2)c1 (configuration not stated),> 100,> 100,> 100 µM,> 100,> 100 µM,> 100,> 100 µM,> 100,> 100,> 100,,,,,,,,,
CC(C)=CCC[C@@H](C)C1=C(Nc2ccccc2Cl)C(O)=C(C)C(=O)C1=O,> 39.1,15.7,36 µM,22.7,43.3 µM,19.8,10.1 µM,26.8,34.1,> 100,,,,,,,,,
Cc1nc2c3c(ncn2n1)Oc1c(c(-c2ccccc2)nn1-c1ccccc1)C3c1ccc(Cl)cc1 (configuration not stated),> 100,> 100,> 100 µM,> 100,> 100 µM,97.1,,> 100,> 100,> 100,,,,,,,,,
Cc1ccc(C(=O)O)c(CC2Cc3c(C)cccc3C2=O)c1 (configuration not stated),> 100,> 100,> 100 µM,> 100,> 100 µM,> 100,> 100 µM,> 100,> 100,> 100,,,,,,,,,
Cc1cccc2c1[nH]c1[nH]c(=O)[nH]c(=O)c12,> 100,> 100,> 100 µM,> 100,> 100 µM,> 100,> 100 µM,> 100,> 100,> 100,,,,,,,,,
C(=C\c1cccc(/C=C/c2ccccn2)n1)/c1ccccn1,> 100,> 100,> 100 µM,> 100,> 100 µM,> 100,> 100 µM,> 100,> 100,> 100,,,,,,,,,
N#Cc1nc(CCCCCN2C(=O)c3ccccc3C2=O)oc1N,> 100,> 100,> 100 µM,> 100,> 100 µM,> 100,> 100 µM,> 100,> 100,> 100,,,,,,,,,
O=C(NCc1cccc(C(F)(F)F)c1)c1cc2sccc2nc1C(F)(F)F,73.7,> 100,,> 100,> 100 µM,> 100,> 100 µM,> 100,> 100,> 100,,,,,,,,,
Cc1ccc(C2=NOC(=O)[C@@H]3CCCC[C@@H]23)cc1,> 100,,> 100 µM,> 100,> 100 µM,> 100,> 100 µM,> 100,> 100,> 100,,,,,,,,,
N=C1N(S(=O)(=O)c2ccccc2)[C@@H](Cc2ccccc2)[C@H](c2ccccc2)C1(c1ccccc1)c1ccccc1,> 100,> 100,> 100 µM,> 100,> 100 µM,> 100,> 100 µM,> 100,,> 100,,,,,,,,,
C=C(CCC(C)C1CCC2C3=C(C(=O)CC21C)C1(C)CCC(=O)[C@@H](C)C1CC3=O)C(C)C(=O)O (some centres not stated),37.8,> 100,> 100 µM,> 100,> 100 µM,> 100,> 100 µM,> 100,> 100,> 100,,,,,,,,,
CN1CCN(c2c(Cl)cc(Cl)c3[nH]c4ccccc4c(=O)c23)CC1,> 43.3,32.9,17.1 µM,19.5,46.2 µM,15.3,31.9 µM,19.7,38.5,26.2,,,,,,,,,
CC[N+]1(C)CCC(O)(/C=C/c2ccc(OC)cc2)C(C(=O)/C=C/c2ccc(OC)cc2)C1 (configuration not stated),> 25.8,> 58,> 55.4 µM,42.9,> 59.6 µM,> 45.7,31.9 µM,35.6,24.6,11.6,,,,,,,,,
CCOC(=O)C1(C(=O)OCC)[C@H](c2ccccc2)C2=NO[C@@H]3CCC[C@H]1[C@H]23,> 100,> 100,> 100 µM,> 100,> 100 µM,> 100,> 100 µM,> 100,> 100,> 100,,,,,,,,,
CN(C)CCNC(=O)c1ccc(NCCCN(C)CCCNc2ccc3c(=O)n(CCN(C)C)c(=O)n4c5ccccc5c(=O)c2c34)c2c(=O)c3ccccc3[nH]c12,0.11,0.164,1.31 µM,0.309,0.197 µM,2.46,1.22 µM,0.523,1.89,0.687,,,,,,,,,
CCOC(=O)C(NC(=O)N(C1=NCC(C)S1)C1CCCCC1)(OC)C(F)(F)F (configuration not stated),28.9,> 100,> 100 µM,41.7,> 100 µM,93.1,66.8 µM,> 100,> 100,> 100,,,,,,,,,
COC(=O)[C@H]1[C@@H](C(C)C)O[C@@H](C(C)C)O[C@H]1C(F)(F)F,> 100,> 100,> 100 µM,> 100,> 100 µM,> 100,> 100 µM,> 100,> 100,> 100,,,,,,,,,
C[C@@H](O)C(=O)N1[C@@H]2CC3CC[C@]2(CS1(=O)=O)C3(C)C,> 100,> 100,> 100 µM,> 100,> 100 µM,> 100,> 100 µM,> 100,> 100,> 100,,,,,,,,,
Clc1ccc(N2N=C(c3cccc(Nc4ccncc4)c3)CC2c2ccc3c(c2)OCO3)cc1 (configuration not stated),,,3.41 µM,,3.25 µM,3.38,3.17 µM,4.51,5.07,,1.76 µM,1.69 µM,1.79 µM,1.76,1.94,2.13,,,

SMILES,TGI [1] [µM],TGI [2] [µM],TGI [3],TGI [4] [µM],TGI [5],TGI [6] [µM],TGI [7],TGI [8] [µM],TGI [9] [µM],TGI [10] [µM],GI50 [3],GI50 [5],GI50 [6],GI50 [7] [µM],GI50 [8] [µM],GI50 [9] [µM],GI50 [2] [µM],GI50 [4],GI50 [10] [µM]
O=[N+]([O-])c1ccc2nc(-c3ccccn3)c(-c3ccccn3)nc2c1,> 100,> 100,> 100 µM,> 100,> 100 µM,> 100,> 100 µM,> 100,> 100,> 100,,,,,,,,,
CN(C)c1nc(N(C)C)nc(N(C)C23CC4CC(CC(C4)C2)C3)n1,> 100,> 100,> 100 µM,> 100,> 100 µM,> 100,,96,> 100,,,,,,,,,,
Clc1ccc(Cc2nc3ccccc3nc2-c2cccc(Br)c2)cc1,3.48,35.6,3.11 µM,36.1,,5.23,27.5 µM,3.14,4.54,30.4,,,,,,,,,
Cc1cc(=O)n2nc(SCc3ccccc3)sc2n1,> 100,> 100,> 100 µM,> 100,> 100 µM,> 100,> 100 µM,> 100,> 100,> 100,,,,,,,,,
Nc1cccc2c1C(=O)c1cccc(N)c1C2=O,> 100,> 100,> 100 µM,> 100,> 100 µM,> 100,> 100 µM,> 100,,> 100,,,,,,,,,
Nc1nc(-c2ccccc2N=NN2CCCC2)nc2ccccc12,4.77,10.5,11.1 µM,5.11,19.1 µM,5,17.8 µM,16.5,19.4,14.5,,,,,,,,,
CC(=O)O[C@@H]1C[C@@]23C[C@@]24CC[C@H](OC2OCC(O)C(O)C2O)C(C)(C)[C@@H]4CC=C3[C@]2(C)C[C@@H]3OC4(C[C@@H](C)[C@@H]3[C@@]12C)OC(O)[C@@]1(C)O[C@@H]41 (some centres not stated),63.1,> 100,96.7 µM,78.3,> 100 µM,41.4,42.7 µM,> 100,97.7,> 100,,,,,,,,,
Cc1cc(/C=C\c2ccc3ccccc3[n+]2C)c(O)c2ncccc12,,13.6,17.8 µM,8.03,1.73 µM,0.909,,27.4,5.68,6.54,1.52 µM,0.323 µM,0.202 µM,,0.494,0.835,0.564,0.497 µM,0.814
C/C=C\C(CC(=O)NCCc1cn(C(=O)OCc2ccccc2)c2ccccc12)CC(=O)OC (configuration not stated),> 100,> 100,> 100 µM,> 100,> 100 µM,,> 100 µM,> 100,,> 100,,,,,,,,,
COc1nc(N(C)C)nc2c1n(C)c[n+]2C,> 100,> 100,> 100 µM,> 100,,> 100,> 100 µM,> 100,> 100,> 100,,,,,,,,,
Cc1cc(O)c(C(C)C)cc1SC#N,,,39.3 µM,38.2,28.5 µM,37.1,42.7 µM,,65,31.8,,,,,,,,,
Cc1ccccc1-n1c(C)nc2c1C(=O)c1ccccc1C2=O,> 100,> 100,> 100 µM,> 100,> 100 µM,> 100,53.7 µM,> 100,,> 100,,,,,,,,,
[Cl][Pt+2][Cl].[NH-]C1CCCCC1[NH-] (configuration not stated),,> 100,35.3 µM and > 100 µM and 37.9 µM,> 100,64.2 µM and 90.5 µM and 47.1 µM,> 100,33 µM and 19.5 µM and 4.39 µM,> 100,,,5.58 µM and 4.7 µM and 0.677 µM,14.5 µM and 9.24 µM and 2.19 µM,21.6 µM and 6.79 µM and 6.99 µM,,,,,53.7 µM and > 100 µM and 22.3 µM,
N/N=C1/C2CN3CCN(C2)CC1(c1ccc([N+](=O)[O-])cc1)C3,> 100,,,> 100,> 100 µM,> 100,> 100 µM,> 100,,> 100,,,,,,,,,
COC1OC(Cc2nnc(C)o2)C(OCc2ccccc2)C(OCc2ccccc2)C1OCc1ccccc1 (configuration not stated),> 100,> 100,> 100 µM,> 100,> 100 µM,> 100,30 µM,> 100,> 100,,,,,,,,,,
COC(=O)C1CCC(=O)N1C(=O)Cc1ccc(OC)cc1 (configuration not stated),,> 100,> 100 µM,,> 100 µM,,> 100 µM,> 100,,> 100,,,,,,,,,
N#CC(C#N)=C1C(C#N)=C(N)NC12OCCO2,> 100,> 100,> 100 µM,> 100,> 100 µM,,> 100 µM,> 100,> 100,> 100,,,,,,,,,
CCOC(=O)C(=[N+]=[N-])C(=O)Nc1nn2nnnc2c2ccccc12,> 100,> 100,,> 100,> 100 µM,> 100,> 100 µM,> 100,,,,,,,,,,,
OCC1OC(n2cnc3cncnc32)C(O)C1O (configuration not stated),,5.8,2.08 µM,6.84,2.63 µM,2.94,3.25 µM,4.27,,,,,,,,,,,
N=c1oc2ccc3ccccc3c2cc1C(N)=O,> 100,> 100,> 100 µM,> 100,> 100 µM,,> 100 µM,> 100,99.7,,,,,,,,,,
Cc1ccc(C(C)(C)C[P+](C)(c2ccccc2)c2ccccc2)cc1,,> 100,> 100 µM,75.9,63.7 µM,> 100,12.7 µM,89.3,,,,,,,,,,,
CC1(C)OCC(C(O)C2OC(C)(C)OC2C=O)O1 (configuration not stated),> 100,> 100,> 100 µM,> 100,> 100 µM,,> 100 µM,> 100,,> 100,,,,,,,,,
